Source: patent publication US20240261418A1, “SOS1 DEGRADING AGENT AND PREPARATION METHOD THEREFOR AND APPLICATION THEREOF” (SHANGHAI LEADINGTAC PHARMACEUTICAL CO. LTD., priority 2021, published 2024)

Target: T1, SOS1 protein (Homo sapiens, UniProt Q07889)
T1 sequence (Q07889 1-1333): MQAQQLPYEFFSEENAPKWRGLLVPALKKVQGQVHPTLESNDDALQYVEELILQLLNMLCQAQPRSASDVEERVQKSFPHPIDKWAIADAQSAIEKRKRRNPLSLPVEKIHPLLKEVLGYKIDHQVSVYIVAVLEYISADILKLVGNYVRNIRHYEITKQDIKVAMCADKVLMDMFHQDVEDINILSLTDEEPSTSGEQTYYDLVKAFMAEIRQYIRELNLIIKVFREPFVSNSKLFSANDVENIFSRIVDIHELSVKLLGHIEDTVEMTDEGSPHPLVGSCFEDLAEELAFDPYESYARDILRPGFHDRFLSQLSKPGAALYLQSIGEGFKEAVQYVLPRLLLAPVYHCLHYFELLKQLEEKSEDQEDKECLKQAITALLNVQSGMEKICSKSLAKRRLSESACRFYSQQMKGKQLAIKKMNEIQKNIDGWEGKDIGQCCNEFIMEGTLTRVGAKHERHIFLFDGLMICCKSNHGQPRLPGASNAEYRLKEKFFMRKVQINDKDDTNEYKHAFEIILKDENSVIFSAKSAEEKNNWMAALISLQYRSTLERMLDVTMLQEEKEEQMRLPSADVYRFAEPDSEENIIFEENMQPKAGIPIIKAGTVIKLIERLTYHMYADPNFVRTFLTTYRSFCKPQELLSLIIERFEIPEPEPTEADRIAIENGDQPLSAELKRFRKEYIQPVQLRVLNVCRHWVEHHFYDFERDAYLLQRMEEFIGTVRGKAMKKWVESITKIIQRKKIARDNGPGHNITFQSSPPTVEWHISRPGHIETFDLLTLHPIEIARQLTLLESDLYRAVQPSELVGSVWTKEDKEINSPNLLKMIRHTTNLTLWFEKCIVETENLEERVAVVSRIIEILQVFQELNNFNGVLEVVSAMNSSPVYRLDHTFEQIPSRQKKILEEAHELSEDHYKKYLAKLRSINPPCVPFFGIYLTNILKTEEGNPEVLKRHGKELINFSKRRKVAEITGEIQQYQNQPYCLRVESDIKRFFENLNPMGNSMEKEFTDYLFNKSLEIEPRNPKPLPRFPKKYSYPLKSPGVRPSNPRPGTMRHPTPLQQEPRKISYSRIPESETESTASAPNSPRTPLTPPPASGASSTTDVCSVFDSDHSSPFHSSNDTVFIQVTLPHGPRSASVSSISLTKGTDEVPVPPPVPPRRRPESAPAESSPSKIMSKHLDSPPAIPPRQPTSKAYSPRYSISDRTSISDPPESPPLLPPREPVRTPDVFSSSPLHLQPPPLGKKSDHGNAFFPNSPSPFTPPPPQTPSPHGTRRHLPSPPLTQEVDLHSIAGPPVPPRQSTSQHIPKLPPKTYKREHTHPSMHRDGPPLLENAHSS
Test: SOS1 degradation assay (Western blot) in DLD-1 cells
Assay type: cell-based
Parameters: host or cells: NCI-H358, A-427, SW-620, DLD-1 (human cancer cell lines)
Settings: DLD-1 (KRAS G13D), 24 h
Method: Test Example 2: SOS1 Degradation Assay
The degradation of SOS1 by the compounds was investigated on KRAS G12C mutant human non-small cell lung cancer cells NCI-H358 (ATCC or Stem Cell Bank, Chinese Academy of Sciences), KRAS G12D mutant human lung cancer cells A-427 (ATCC), KRAS G12V mutant human colorectal adenocarcinoma cells SW-620 (ATCC), and KRAS G13D mutant human colorectal adenocarcinoma epithelial cells DLD-1 (ATCC). The specific procedures were as follows:
0.95 mL of cells were seeded into each well of a 24-well cell culture plate to achieve a cell density of 5×10^5 cells/well; the cell plate was incubated in an incubator at 37° C. with 5% CO2 overnight. Then 50 μL of the compound solution after dilution was added to each of the wells with the corresponding cells, so that the final concentration of the compound was in a range of 0.03-3000 nM. The final concentration of DMSO was 0.25%.
After dosing, the cell plate was incubated in an incubator at 37° C. with 5% CO2 for 24 h. The cell culture medium in the 24-well plate was removed, and the plate was washed twice with 1×PBS. 180 μL of RIPA (strong) lysis buffer (Beyotime, P0013B) supplemented with 1 mM phenylmethylsulfonyl fluoride, a protease inhibitor mixture (Beyotime, P1008), and a protease phosphatase inhibitor mixture (Beyotime, P1045) was added to lyse adherent NCI-H358 cells at the bottom of the cell culture plate. After the plate was left to stand on ice for 30 min, the protein lysate in each well was transferred to a 1.5 mL centrifuge tube and centrifuged at 15000 g for 20 min at 4° C. […] The concentration of total protein in the cell lysate supernatant was determined using the BCA Protein Quantification Kit (Tiangen, PA115-02). […]
The concentration of total protein in the cell lysate was determined by BCA. […] After the blocking, the PVDF membrane was incubated with an SOS1 primary antibody (Abcam, ab140621) at 4° C. overnight, washed with a TBST buffer (2.4 g of Tris, 8.8 g of NaCl, 1.5 mL of Tween 20, with pH adjusted to 7.4, with the volume brought to 1 L) for 30 min (10 min/time), incubated with a secondary antibody (Abcam, ab205718) at room temperature for 2 h, washed with a TBST buffer for 30 min (10 min/time), and finally incubated with Clarity Western ECL Substrate (BIO-RAD, 170-5061) for 5 min for luminescence and color development, and a chemiluminescence imaging system (Clinx, ChemiScope 6200 Touch) was used for color development and protein mapping. […] The gray correction value for each sample was calculated by the formula: gray correction value=(gray value of target protein/gray value of corresponding internal reference)×103. Then the degradation rate was calculated by comparing the gray correction value with the gray correction value of the control group. […]

DC50 [nM] | Dmax [%] | Structure (SMILES)
≤ 50 | 80 to 100 | COc1cc2nc(C)nc(N[C@H](C)c3cc(-c4c(Cl)cccc4CN(C)C)cs3)c2cc1[C@H]1CC[C@H](C(=O)N2CCN(CC3CCC4(CC3)CCN(C(=O)c3ccc(Cl)c(N5CCC(=O)NC5=O)c3)CC4)CC2)CC1 [Example 1, 1-(2-chloro-5-(9-((4-((1R,4R)-4-(4-(((R)-1-(4-(2-chloro-6-((dimethylamino)methyl)phenyl)thien-2-yl)ethyl)amino)-7-methoxy-2-methylquinazolin-6-yl)cyclohexane-1-carbonyl)piperazin-1-yl)methyl)-3-azaspiro[5.5]undecane-3-carbonyl)phenyl)dihydropyrimidine-2,4(1H,3H)-dione]
≤ 50 | 80 to 100 | COc1cc2nc(C)nc(N[C@H](C)c3cc(-c4c(Cl)cccc4CN(C)C)cs3)c2cc1[C@H]1CC[C@H](C(=O)N2CCC(CCOCC3CCN(C(=O)c4ccc(Cl)c(N5CCC(=O)NC5=O)c4)CC3)CC2)CC1 [Example 5, 1-(2-chloro-5-(4-((2-(1-((1R,4R)-4-(4-(((R)-1-(4-(2-chloro-6-((dimethylamino)methyl)phenyl)thien-2-yl)ethyl)amino)-7-methoxy-2-methylquinazolin-6-yl)cyclohexane-1-carbonyl)piperidin-4-yl)ethoxy)methyl)piperidine-1-carbonyl)phenyl)dihydropyrimidine-2,4(1H,3H)-dione]
